The record followed here is PubChem BioAssay (NCI).

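Results reflect a 48-hour exposure of cells in 96-well plates to compound at five concentrations. Definition used: TGI = concentration required for complete inhibition of growth.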 Bounds are passed on as bounds.

Among the test systems are EKVX NSCLC; HL-60(TB) leukemia; ACHN renal; MCF7 breast; RPMI-8226 leukemia; SNB-19 CNS; MALME-3M melanoma; U251 CNS.
Common to all, as to assay: inhibition of tumour cell growth, NCI panel, 48 h

On to `NC(=O)CCC(NC(=O)c1cccc2c(=O)c3ccccc3[nH]c12)C(=O)O` (stereo unspecified), for which the TGI with EKVX NSCLC, in the experiment on HL-60(TB) leukemia, with ACHN renal, with MCF7 breast, in the experiment with RPMI-8226 leukemia and with SNB-19 CNS was greater than 100 µM each time. The TGI in the experiment with MALME-3M melanoma and in the experiment on U251 CNS was greater than 100 µM in each case.
Consider `Cc1ccc(C(=O)C2=CN=C3C(=O)N(c4ccccc4)N(C)C3(C)C2=N)cc1` (stereo unspecified), for which the TGI in the experiment on EKVX NSCLC, with HL-60(TB) leukemia, in the experiment with ACHN renal, in the experiment on MCF7 breast, in the experiment with RPMI-8226 leukemia and with MALME-3M melanoma was greater than 100 µM in each case. Further, in the experiment on U251 CNS, the TGI was greater than 100 µM.
`COC12OC3CC4(C)C(=CC3OC(OC(C)C1O)C2O)CCC1C4CCC2(C)C(c3ccc(=O)oc3)CCC12O` (stereo unspecified): the TGI was less than 0.001 µM in the experiment with EKVX NSCLC; 0.00215 µM in the experiment on HL-60(TB) leukemia; 0.00449 µM in the experiment on ACHN renal; 0.00432 µM with MCF7 breast; 0.00409 µM with RPMI-8226 leukemia; 0.00455 µM in the experiment on SNB-19 CNS. Also, the TGI came to 0.00391 µM with MALME-3M melanoma and 0.00277 µM in the experiment on U251 CNS.
Consider `NC(=O)C[C@H](NC(=O)C1(NC(=O)[C@H](Cc2ccc(CP(=O)(O)O)cc2)NC(=O)C(=O)O)CCCCC1)C(=O)NCCCc1cccc2ccccc12`, for which the TGI in the experiment on EKVX NSCLC, with HL-60(TB) leukemia, in the experiment on ACHN renal, with MCF7 breast, in the experiment with RPMI-8226 leukemia and with SNB-19 CNS was greater than 10 µM throughout. Besides, the TGI with MALME-3M melanoma and in the experiment on U251 CNS was greater than 10 µM in each case.
With `CNc1ncnc2c1nnn2C`, the TGI with EKVX NSCLC, in the experiment on HL-60(TB) leukemia, with ACHN renal, in the experiment on MCF7 breast, in the experiment on RPMI-8226 leukemia and in the experiment with SNB-19 CNS was greater than 100 µM each time. Besides, the TGI in the experiment with MALME-3M melanoma and in the experiment on U251 CNS was greater than 100 µM in each case.
As for `CO[C@H]1C[C@H](n2cc(C)c(=O)[nH]c2=O)O[C@@H]1CO`, the TGI with EKVX NSCLC, with HL-60(TB) leukemia, in the experiment with ACHN renal, with MCF7 breast, in the experiment with RPMI-8226 leukemia and with SNB-19 CNS was greater than 100 µM each time. Besides, the TGI with MALME-3M melanoma and in the experiment on U251 CNS was greater than 100 µM in each case.
In the case of `COc1ccc2oc(=Nc3ccc(F)cc3)c(C(N)=O)cc2c1`, the TGI with EKVX NSCLC, with HL-60(TB) leukemia, in the experiment with ACHN renal, with MCF7 breast, with RPMI-8226 leukemia and in the experiment on SNB-19 CNS was greater than 100 µM each time. Besides, the TGI in the experiment with MALME-3M melanoma and in the experiment with U251 CNS was greater than 100 µM in each case.
Take `CCCCNC(=S)c1ccc(OC(=O)Nc2ccc(Cl)cc2)cc1`: the TGI in the experiment on EKVX NSCLC, in the experiment with HL-60(TB) leukemia, with ACHN renal, in the experiment on MCF7 breast, with RPMI-8226 leukemia and in the experiment on SNB-19 CNS was greater than 100 µM each time. In addition, the TGI in the experiment with MALME-3M melanoma and with U251 CNS was greater than 100 µM each time.
In the case of `COC(=O)c1c(O)ccc2c1c1c(n2Cc2ccccc2OC)C(=O)c2ccccc2C1`, the TGI is greater than 100 µM in the experiment with HL-60(TB) leukemia; greater than 100 µM with MCF7 breast; 72.2 µM with RPMI-8226 leukemia; greater than 100 µM with SNB-19 CNS; greater than 100 µM in the experiment with MALME-3M melanoma; greater than 100 µM with U251 CNS.
On to `CN(C)CCNC(=O)c1cccc2[nH]c(-c3ccncc3)nc12`, for which the TGI was 73.7 µM in the experiment with EKVX NSCLC; 4.06 µM with HL-60(TB) leukemia; 28.4 µM in the experiment with ACHN renal; greater than 30.8 µM with MCF7 breast; 21.5 µM with RPMI-8226 leukemia; greater than 63.2 µM with SNB-19 CNS. Moreover, the TGI in the experiment with MALME-3M melanoma was found to be 3.75 µM; with U251 CNS, 9.82 µM.
Regarding `N#CCSc1c(-c2ccccc2)c(=O)n(-c2ccccc2)c(=S)n1-c1ccccc1`, the TGI with EKVX NSCLC, with HL-60(TB) leukemia, with ACHN renal, in the experiment with MCF7 breast, in the experiment on RPMI-8226 leukemia and in the experiment on SNB-19 CNS was greater than 100 µM in each case. Besides, the TGI in the experiment on MALME-3M melanoma and in the experiment on U251 CNS was greater than 100 µM each time.
As for `COc1cc(/C=C2\N=C(C)N(n3c(-c4ccccc4)nc4ccccc4c3=O)C2=O)cc(OC)c1OC`, the TGI with EKVX NSCLC, in the experiment on HL-60(TB) leukemia, in the experiment on ACHN renal, in the experiment on MCF7 breast, with RPMI-8226 leukemia and in the experiment with SNB-19 CNS was greater than 100 µM each time. The same compound gave a TGI in the experiment on MALME-3M melanoma greater than 100 µM.
On to `CCCC(=O)Nc1cc(/C=C/C(=O)N2CC(CCl)c3c2cc([N+](=O)[O-])c2ccccc32)n(C)c1` (stereo unspecified), for which the TGI with HL-60(TB) leukemia is 27.2 µM; with ACHN renal, greater than 100 µM; with MCF7 breast it was greater than 100 µM; in the experiment on RPMI-8226 leukemia it was greater than 100 µM; with SNB-19 CNS it was greater than 100 µM; with U251 CNS it was greater than 100 µM.
As for `COc1ccc(N2C(N)=C(C#N)C(C#N)(C#N)C2c2cccc([N+](=O)[O-])c2)cc1` (stereo unspecified), the TGI in the experiment on EKVX NSCLC was 39.7 µM; in the experiment with HL-60(TB) leukemia it was greater than 25.7 µM; in the experiment on ACHN renal, 27.4 µM; with MCF7 breast, 40.2 µM; in the experiment with RPMI-8226 leukemia, 42.5 µM; with SNB-19 CNS it was 32.5 µM. The TGI was 16 µM in the experiment with MALME-3M melanoma and 31.7 µM in the experiment on U251 CNS.
Regarding `O=C(O)CN(CC(=O)O)Cc1ccn(-c2cccc(-n3ccc(CN(CC(=O)O)CC(=O)O)n3)n2)n1`, the TGI in the experiment on EKVX NSCLC, in the experiment on HL-60(TB) leukemia, in the experiment with ACHN renal, in the experiment on MCF7 breast, in the experiment on RPMI-8226 leukemia and in the experiment on SNB-19 CNS was greater than 100 µM each time. For the same compound, the TGI in the experiment with MALME-3M melanoma and in the experiment on U251 CNS was greater than 100 µM each time.
As for `COc1cc([C@@H]2c3cc4c(cc3[C@@H](N=Cc3ccc(C(=O)O[C@@H](C(=O)O[C@H]5C[C@@]6(O)[C@@H](OC(=O)c7ccccc7)[C@@H]7[C@]8(OC(C)=O)CO[C@@H]8C[C@H](O)[C@@]7(C)C(=O)[C@H](OC(C)=O)C(=C5C)C6(C)C)[C@@H](NC(=O)c5ccccc5)c5ccccc5)cc3)[C@H]3COC(=O)[C@H]23)OCO4)cc(OC)c1O`, the TGI with EKVX NSCLC was greater than 47 µM; in the experiment on HL-60(TB) leukemia it was 0.182 µM; with ACHN renal, greater than 50 µM; in the experiment with MCF7 breast, 7.38 µM; in the experiment on SNB-19 CNS, greater than 50 µM; in the experiment on MALME-3M melanoma, greater than 50 µM. Moreover, in the experiment on U251 CNS, the TGI is greater than 16.9 µM.
